According to patent US20250388593A1 (MITSUBISHI TANABE PHARMA CORPORATION, priority 2023, published 2025):

These molecules were tested against CRBN truncate (318-426) (Homo sapiens (Human), UniProt Q96SW2) (assay: Measurement of molecular interactions using surface plasmon resonance (SPR), Biacore T200). Settings: 25° C., immobilized CRBN truncate, upper limit of measurement 200 μM.
Format: binding
Procedure, shortened: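 C-terminally Avi-tagged CRBN (318-426) captured on a streptavidin SA chip on a Biacore T200. Running buffer 10 mM HEPES pH 7.5, 150 mM NaCl, 1 mM TCEP, 0.005% Tween 20, 2% DMSO; 60 s contact, 120 s dissociation.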

Sequence of CRBN truncate (318-426) (Q96SW2 318-426): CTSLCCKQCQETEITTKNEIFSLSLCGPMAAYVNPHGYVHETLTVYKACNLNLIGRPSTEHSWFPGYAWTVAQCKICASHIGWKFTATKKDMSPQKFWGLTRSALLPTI

Kd [µM] | Molecule
≥ 100 | CC(C)(C)OC(=O)Cn1c(=O)c(=O)n(C2CCCC(=O)NC2=O)c2ccccc21 (stereo not drawn) [Example 275, tert-Butyl 2-[4-(2,7-dioxoazepan-3-yl)-2,3-dioxoquinoxalin-1-yl]acetate]
< 50 | Cc1sc2c(c1C)C(c1ccc(Cl)cc1)=N[C@@H](CC(=O)NCCCCCOc1ccc3nc(N4CC5(CC(=O)N(C6CCC(=O)NC6=O)C5=O)C4)sc3c1)c1nnc(C)n1-2 (stereo partly drawn) [Example 321, 2-[(9S)-7-(4-chlorophenyl)-4,5,13-trimethyl-3-thia-1,8,11,12-tetraazatricyclo[8.3.0.02,6]trideca-2(6),4,7,10,12-pentaen-9-yl]-N-[5-[[2-[6-(2,6-dioxopiperidin-3-yl)-5,7-dioxo-2,6-diazaspiro[3.4]octan-2-yl]-1,3-benzothiazol-6-yl]oxy]pentyl]acetamide]
< 50 | CC(C)(C)OC(=O)NCCCn1c(=O)n(C2CCCC(=O)NC2=O)c2ccccc21 (stereo not drawn) [Example 196, tert-Butyl N-[3-[3-(2,7-dioxoazepan-3-yl)-2-oxobenzimidazol-1-yl]propyl]carbamate]
< 50 | Cc1sc2c(c1C)C(c1ccc(Cl)cc1)=N[C@@H](CC(=O)NCCCCCCCCNC(=O)/C=C/c1cccc3c1N(C)C(=O)C3(C)N1C=CCC(=O)NC1=O)c1nnc(C)n1-2 (stereo partly drawn) [Example 348, (E)-N-[8-[[2-[(9S)-7-(4-chlorophenyl)-4,5,13-trimethyl-3-thia-1,8,11,12-tetrazatricyclo[8.3.0.02,6]trideca-2(6),4,7,10,12-pentaen-9-yl]acetyl]amino]octyl]-3-[3-(2,4-dioxo-5H-1,3-diazepin-1-yl)-1,3-dimethyl-2-oxoindolin-7-yl]prop-2-enamide]
≥ 100 | CC1(N2CCCC(=O)NC2=O)C(=O)N(CC(=O)O)c2ccccc21 (stereo not drawn) [Example 292, 2-[3-(2,4-dioxo-1,3-diazepan-1-yl)-3-methyl-2-oxoindol-1-yl]acetic acid]
≥ 100 | Cn1c(=O)c(=O)n(C2CCCC(=O)NC2=O)c2ccccc21 (stereo not drawn) [Example 259, 1-(2,7-Dioxoazepan-3-yl)-4-methylquinoxaline-2,3-dione]
< 50 | Cc1sc2c(c1C)C(c1ccc(Cl)cc1)=N[C@@H](CC(=O)NCCCCCCCCNC(=O)Cn1c(=O)n(C3CCCC(=O)NC3=O)c3ccccc31)c1nnc(C)n1-2 (stereo partly drawn) [Example 332, 2-[(9S)-7-(4-chlorophenyl)-4,5,13-trimethyl-3-thia-1,8,11,12-tetraazatricyclo[8.3.0.02,6]trideca-2(6),4,7,10,12-pentaen-9-yl]-N-[8-[[2-[3-(2,7-dioxoazepan-3-yl)-2-oxobenzimidazol-1-yl]acetyl]amino]octyl]acetamide]
< 50 | CC(C)(C)OC(=O)NCCCCCCCCn1ccc2c(N3CC4(CC(=O)N(C5CCC(=O)NC5=O)C4=O)C3)ncnc21 (stereo not drawn) [Example 236, tert-Butyl N-[8-[4-[6-(2,6-dioxopiperidin-3-yl)-5,7-dioxo-2,6-diazaspiro[3.4]octan-2-yl]pyrrolo[2,3-d]pyrimidin-7-yl]octyl]carbamate]
≥ 100 | Cn1c(=O)n(C2CCCC(=O)NC2=O)c(=O)c2ccc(CCC(=O)OC(C)(C)C)cc21 (stereo not drawn) [Example 265, tert-Butyl 3-[3-(2,7-dioxoazepan-3-yl)-1-methyl-2,4-dioxoquinazolin-7-yl]propanoate]
< 50 | Cc1sc2c(c1C)C(c1ccc(Cl)cc1)=N[C@@H](CC(=O)NCCCCCCCNc1ccc(N3CCC(N4CCCC(=O)NC4=O)C3=O)cc1)c1nnc(C)n1-2 (stereo partly drawn) [Example 313, 2-[(9S)-7-(4-chlorophenyl)-4,5,13-trimethyl-3-thia-1,8,11,12-tetraazatricyclo[8.3.0.02,6]trideca-2(6),4,7,10,12-pentaen-9-yl]-N-[7-[4-[3-(2,4-dioxo-1,3-diazepan-1-yl)-2-oxopyrrolidin-1-yl]anilino]heptyl]acetamide]
< 50 | CC(C)(C)OC(=O)NCCCCCCCn1c(=O)n(C2CCCC(=O)NC2=O)c2ccccc21 (stereo not drawn) [Example 198, tert-Butyl N-[7-[3-(2,7-dioxoazepan-3-yl)-2-oxobenzimidazol-1-yl]heptyl] carbamate]
50 to 100 | CC(C)(C)OC(=O)NCCCCCCCCn1ccc2c(N3CCC4(CCCC(=O)NC4=O)C3)ncnc21 (stereo not drawn) [Example 186, tert-Butyl N-[8-[4-(6,8-dioxo-2,7-diazaspiro[4.6]undecan-2-yl)pyrrolo[2,3-d]pyrimidin-7-yl]octyl]carbamate]
< 50 | Cc1sc2c(c1C)C(c1ccc(Cl)cc1)=N[C@@H](CC(=O)NCCCNc1nccc(N3CC4(CC(=O)N(C5CCC(=O)NC5=O)C4=O)C3)n1)c1nnc(C)n1-2 (stereo partly drawn) [Example 315, 2-[(9S)-7-(4-chlorophenyl)-4,5,13-trimethyl-3-thia-1,8,11,12-tetraazatricyclo[8.3.0.02,6]trideca-2(6),4,7,10,12-pentaen-9-yl]-N-[3-[[4-[6-(2,6-dioxopiperidin-3-yl)-5,7-dioxo-2,6-diazaspiro[3.4]octan-2-yl]pyrimidin-2-yl]amino]propyl]acetamide]
≥ 100 | COc1cccc2c1ccc(=O)n2C1CCCC(=O)NC1=O (stereo not drawn) [Example 258, 3-(5-Methoxy-2-oxoquinolin-1-yl)azepane-2,7-dione]
50 to 100 | Cn1c(=O)n(C2CCCC(=O)NC2=O)c2ccc(C3CCN(C(=O)OC(C)(C)C)CC3)cc21 (stereo not drawn) [Example 218, tert-Butyl 4-[1-(2,7-dioxoazepan-3-yl)-3-methyl-2-oxobenzimidazol-5-yl]piperidine-1-carboxylate]

Further lines, the molecule ahead of its results:

Molecule | Kd [µM]
N#Cc1cc([N+](=O)[O-])ccc1N1CCC2(CCCC(=O)NC2=O)C1 (stereo not drawn) [Example 177, 2-(6,8-dioxo-2,7-diazaspiro[4.6]undecan-2-yl)-5-nitrobenzonitrile] | 50 to 100
O=C1CCOC(c2cccc(Br)c2)C(=O)N1 (stereo not drawn) [Example 19, 2-(3-Bromophenyl)-1,4-oxazepane-3,5-dione] | ≥ 100
2-(3-Methyl-5-nitro-2-pyridyl)-2,7-diazaspiro[4.6]undecane-6,8-dione [Example 78] | ≥ 100
CC(=O)Nc1ccc2nc(N3CCC4(CCCC(=O)NC4=O)C3)sc2c1 (stereo not drawn) [Example 87, N-[2-(6,8-dioxo-2,7-diazaspiro[4.6]undecan-2-yl)-1,3-benzothiazol-6-yl]acetamide] | ≥ 100
Cc1sc2c(c1C)C(c1ccc(Cl)cc1)=N[C@@H](CC(=O)NCCCCCCCc1cn(C3CCCC(=O)NC3=O)nn1)c1nnc(C)n1-2 (stereo partly drawn) [Example 310, 2-[(9S)-7-(4-chlorophenyl)-4,5,13-trimethyl-3-thia-1,8,11,12-tetraazatricyclo[8.3.0.02,6]trideca-2(6),4,7,10,12-pentaen-9-yl]-N-[7-[1-(2,7-dioxoazepan-3-yl)triazol-4-yl]heptyl]acetamide] | ≥ 100
CC(C)(C)OC(=O)c1ccc(N2CC3(CCCC(=O)NC3=O)CC2=O)nc1 (stereo not drawn) [Example 113, tert-Butyl 6-(3,6,8-trioxo-2,7-diazaspiro [4.6]undecan-2-yl) pyridine-3-carboxylate] | ≥ 100
O=C1CCCC2(CCN(C(=O)c3ccc4scnc4c3)C2)C(=O)N1 (stereo not drawn) [Example 152, 2-(1,3-Benzothiazole-5-carbonyl)-2,7-diazaspiro[4.6]undecane-6,8-dione] | ≥ 100
O=C1CCCC2(CCN(C(=O)c3ccccc3)CC2)C(=O)N1 [Example 106, 3-Benzoyl-3,8-diazaspiro [5.6]dodecane-7,9-dione] | ≥ 100
CC(C)(C)OC(=O)NCCCCCCc1ccc(C(=O)N2CCC3(CCCC(=O)NC3=O)C2)cc1Cl (stereo not drawn) [Example 160, tert-Butyl N-[6-[2-chloro-4-(6,8-dioxo-2,7-diazaspiro[4.6]undecane-2-carbonyl)phenyl]hexyl]carbamate] | 50 to 100
O=C1CCCC(NC(=O)c2cccc(-c3ccccc3)c2)C(=O)N1 (stereo not drawn) [Example 21, N-(2,7-dioxoazepan-3-yl)-3-phenylbenzamide] | ≥ 100
CC(C)(C)OC(=O)N1CCN(C2CCCC(=O)NC2=O)C(=O)C1=O (stereo not drawn) [Example 29-2, tert-Butyl 4-(2,7-dioxoazepan-3-yl)-2,3-dioxopiperazine-1-carboxylate] | ≥ 100
CC(C)(C)OC(=O)Nc1cccc(-c2cn(C3CCCC(=O)NC3=O)nn2)c1 (stereo not drawn) [Example 5, tert-Butyl N-[3-[1-(2,7-dioxoazepan-3-yl)triazol-4-yl]phenyl]carb amate] | ≥ 100
CC(C)(C)OC(=O)c1cccc(N2CCC3(CCCC(=O)NC3=O)CC2=O)c1 (stereo not drawn) [Example 110, tert-Butyl 3-(4,7,9-trioxo-3,8-diazaspiro [5.6]dodecan-3-yl) benzoate] | ≥ 100
COC(=O)c1ccc(=O)n(C2CCCC(=O)NC2=O)c1 (stereo not drawn) [Example 26, Methyl 1-(2,7-dioxoazepan-3-yl)-6-oxopyridine-3-carboxylate] | ≥ 100
Nc1ccccc1OC1CCCC(=O)NC1=O (stereo not drawn) [Example 66-2, 3-(2-Aminophenoxy) azepane-2,7-dione] | ≥ 100
